Key:
[1] = in vivo; conditions: mouse
Description: Male Swiss albino mice (BNL strain, 20-32 g) were used in this study. No-carrier-added [1-^11 C]putrescine (0.05-0.20 μCi/mouse of specific activity greater than 1.4 Ci/μmol; 36-140 pmol/mouse) was injected by tail vein into mice and the animals were killed by cervical dislocation at the desired time interval (5, 30 and 60 minutes). The various organs were rapidly removed, blotted free of blood and placed in preweighed counting vials and the vials were sealed. Tissue samples as well as injection standards were counted in a Packard automated sodium iodide well counter. Both percent injected dose per gram of tissue and percent injected dose per organ were determined from the decay corrected activity.

[2] = system: transplanted rat glioma; conditions: Volkow et al. 1983, cited from earlier work

NCCC[11CH2]N [no-carrier-added [1-^11 C]putrescine, [1-^11 C]putrescine]
accumulation of activity in normal brain compared with other tissues (in words) [1]: less in the normal brain than for other tissues
tissues of main uptake (in words) [1]: taken up by the liver, kidneys, and small intestine
tissue uptake at 5 min ([1]; iv): 1.37 ± 0.18 %ID/g
tissue uptake at 0.5 h ([1]; iv): 0.82 ± 0.11 %ID/g
tissue uptake at 1 h ([1]; iv): 0.76 ± 0.46 %ID/g
Tissue distribution, Brain ([1]; iv, 5 min): 0.12 ± 0.01 % Dose/Organ
Tissue distribution, Heart ([1]; iv, 5 min): 0.19 ± 0.04 % Dose/Organ
Tissue distribution, Kidney ([1]; iv, 5 min): 10.5 ± 2.0 % Dose/Organ
Tissue distribution, Liver ([1]; iv, 5 min): 5.96 ± 1.2 % Dose/Organ
Tissue distribution, Lungs ([1]; iv, 5 min): 0.57 ± 0.08 % Dose/Organ
Tissue distribution, Small Intestine ([1]; iv, 5 min): 13.7 ± 5.0 % Dose/Organ
Tissue distribution, Spleen ([1]; iv, 5 min): 0.57 ± 0.35 % Dose/Organ
Tissue distribution, Brain ([1]; iv, 30 min): 0.15 ± 0.01 % Dose/Organ
Tissue distribution, Heart ([1]; iv, 30 min): 0.15 ± 0.02 % Dose/Organ
Tissue distribution, Kidney ([1]; iv, 30 min): 2.63 ± 0.36 % Dose/Organ
Tissue distribution, Liver ([1]; iv, 30 min): 4.85 ± 0.75 % Dose/Organ
Tissue distribution, Lungs ([1]; iv, 30 min): 0.48 ± 0.08 % Dose/Organ
Tissue distribution, Small Intestine ([1]; iv, 30 min): 7.61 ± 2.00 % Dose/Organ
Tissue distribution, Spleen ([1]; iv, 30 min): 0.56 ± 0.25 % Dose/Organ
Tissue distribution, Brain ([1]; iv, 60 min): 0.13 ± 0.01 % Dose/Organ
Tissue distribution, Heart ([1]; iv, 60 min): 0.12 ± 0.01 % Dose/Organ
Tissue distribution, Kidney ([1]; iv, 60 min): 1.27 ± 0.21 % Dose/Organ
Tissue distribution, Liver ([1]; iv, 60 min): 3.70 ± 0.50 % Dose/Organ
Tissue distribution, Lungs ([1]; iv, 60 min): 0.43 ± 0.08 % Dose/Organ
Tissue distribution, Small Intestine ([1]; iv, 60 min): 4.40 ± 1.66 % Dose/Organ
Tissue distribution, Spleen ([1]; iv, 60 min): 0.48 ± 0.16 % Dose/Organ

NCCCCN [putrescine]
in vivo uptake into transplanted rat glioma relative to normal brain tissue ([2]; transplanted rat glioma vs normal brain tissue): 35 times greater
metabolism to spermine by the tumor (in words) ([2]; transplanted rat glioma, in contrast to adjacent normal brain tissue): rapid

From US4874600A, “No-carrier-added [1^11 c]putrescine” (The United States of America as Represented by the United …, priority 1986, dated 1989)
